In brackets after ≈: the same amount, converted by molar mass.
What was measured:
[1] = target: chitinase enzyme extracted from Trichoderma viride; experiment: Chitinase inhibition assay (NP-GlcNAc substrate); format: biochemical
Protocol: Chitinase inhibition assays were conducted against an example of the GH18 family of chitinases, i.e the chitinase enzyme extracted from Trichoderma viride. This enzyme has an high degree of identity compared to chitinase 4 of Candida albicans, and is commercially available from Sigma-Aldrich (catalogue ID: C8241).
The substrate used was the NP-GlcNAc (Sigma-Aldrich, catalogue ID: N9376) dissolved in MES 50 mM at pH6.0; the final concentration was 250 μM. The enzyme was resuspended at 0.11 mg/ml in MES 50 mM at pH 6.0, with a final concentration for the assay of 73 nM diluting with MES 50 mM and BSA 20 μg/ml at pH 6.0. A stock solution of the inhibitors was prepared at 50 mM in DMSO 100%.
The mixture with the inhibitor at various concentrations and the enzyme was prepared directly into the reading plate and left to incubate at room temperature for 20 minutes or three hours. At the end of the incubation times, the substrate was added and the reading was conducted by recording the values up to a maximum time of 10 minutes. The substrate concentration was measured by reading UV absorption at 300 nm (εM^300: 11100), while, the product of hydrolysis were measured at 400 nm (ΔεM^400: 2120). Both IC50 and Ki can be calculated.

[2] = test system: C. glabrata fluconazole resistant strains; experiment: microbe, parasite or virus in culture; format: cell-based, Candida glabrata; conditions: Nakaseomyces glabratus, 24 h
[3] = test system: C. albicans fluconazole resistant strains; experiment: microbe, parasite or virus in culture; format: cell-based; conditions: Candida albicans, 24 h
C. tropicalis = experiment: Antimicrobial susceptibility testing (microdilution MIC90), C. tropicalis strains; format: cell-based; conditions: Candida tropicalis; C. tropicalis (11 strains tested); 24 h
Protocol: (§1) Sterile plastic microtitration plates containing flat-bottomed wells were used. The plates contained serial dilution of the antifungal agents with a volume of assay medium of 100 μL/well. Two drug-free medium wells were used as sterility and growth controls. The trays were inoculated with 100 μL/well of the final inoculum, with the exception of sterility control wells. […] The microtitration plates were incubated at 37° C. for 24 h. The minimal inhibitory concentrations (MICs) were determined at 24 h both visually and spectrophotometrically measuring the turbidity at 595 nm with a Varian model 1475 spectrophotometer. Results of biological tests are shown in Table 2, biological data are reported as MIC90 that is the minimum concentration required to inhibit the growth of at least the 90% of the strains tested for each species.

C. parapsilosis = experiment: Antimicrobial susceptibility testing (microdilution MIC90), C. parapsilosis strains; format: cell-based, Candida parapsilosis; conditions: Lodderomyces parapsilosis; C. parapsilosis (24 strains tested); 24 h
Protocol: as §1

C. krusei = experiment: Antimicrobial susceptibility testing (microdilution MIC90), C. krusei strains; format: cell-based, Candida krusei; conditions: Pichia kudriavzevii; C. krusei (13 strains tested); 24 h; read-out: MIC90
Protocol: as §1

C. glabrata = experiment: Antimicrobial susceptibility testing (microdilution MIC90), C. glabrata strains; format: cell-based, Candida glabrata; conditions: Nakaseomyces glabratus; C. glabrata (26 strains tested); 24 h
Protocol: as §1

C. albicans = experiment: Antimicrobial susceptibility testing (microdilution MIC90), C. albicans strains; format: cell-based; conditions: Candida albicans; C. albicans (22 strains tested); 24 h, visually and spectrophotometrically
Protocol: as §1

C. kefyr = experiment: Antimicrobial susceptibility testing (microdilution MIC90), C. kefyr strains; format: cell-based, Candida kefyr; conditions: Kluyveromyces marxianus; C. kefyr (10 strains tested); 24 h
Protocol: as §1

C. guilliermondii = experiment: Antimicrobial susceptibility testing (microdilution MIC90), C. guilliermondii strains; format: cell-based, Candida guilliermondii; conditions: Meyerozyma guilliermondii; C. guilliermondii (10 strains tested); 24 h
Protocol: as §1

[4] = Enz.-inhib. incubation time 20 min
[5] = Enz.-inhib. incubation time 3 h
[6] = strain DSY284, ERG11 Mutation, mean of three measurements
[7] = strain DSY289, ERG11 Mutation (2)
[8] = strain DSY291, ERG11 Mutation (2)
[9] = strain DSY292, ERG11 Mutation (3)
[10] = strain DSY751, ↑MDR1, ERG11 Mutation

`CCNC(=N)NCCCCCCN1CCCCCCCCNC(=N)NC1=O` [Compound 38, 1-ethyl-3-[6-(4-imino-2-oxo-1,3,5-triazacyclotridec-1-yl)hexyl]guanidine] showed an IC50 [1, 4] of 508 µM, a Ki [1, 4] of 164 µM and an IC50 [1, 5] of 140 µM. It also gave a Ki [1, 5] of 45.3 µM.
`C[C@@H](c1ncncc1F)[C@](O)(Cn1cncn1)c1ccc(F)cc1F` [VOR, Voriconazole, reference compound] was tested, and the MIC ([2]; strain DSY530, ↑CDR1) was 0.5 µg/mL (≈ 1.43 µM), the MIC ([2]; strain DSY754, ↑CDR1) was 2 µg/mL (≈ 5.73 µM) and the MIC ([2]; strain DSY756, ↑CDR1-CDR2-SNQ2) was 4 µg/mL (≈ 11.5 µM). The MIC ([2]; strain DSY2254, ↑CDR1-CDR2) was 2 µg/mL (≈ 5.73 µM), the MIC [3, 6] was 4 µg/mL (≈ 11.5 µM) and the MIC [3, 7] was 8 µg/mL (≈ 22.9 µM). For the same molecule, the MIC [3, 8] was 0.03 µg/mL (≈ 0.0859 µM), the MIC [3, 9] was 2 µg/mL (≈ 5.73 µM) and the MIC ([3]; strain DSY296, ERG11 Mutation) was 8 µg/mL (≈ 22.9 µM). It also gave an MIC ([3]; strain DSY348, ERG11 Mutation) of 0.25 µg/mL (≈ 0.716 µM), an MIC ([3]; strain DSY732, ↑CDR1-CDR2) of 0.25 µg/mL (≈ 0.716 µM) and an MIC ([3]; strain DSY735, ↑CDR1-CDR2) of 2 µg/mL (≈ 5.73 µM). For the same molecule, the MIC ([3]; strain DSY750, ↑MDR1) was 0.016 µg/mL (≈ 0.0458 µM), the MIC [3, 10] was 0.25 µg/mL (≈ 0.716 µM) and the MIC ([3]; strain DSY775, ERG11 Mutation) was 8 µg/mL (≈ 22.9 µM). It also gave an MIC ([3]; strain DSY2323, ↑CDR2-MDR1) of 0.25 µg/mL (≈ 0.716 µM).
Molecule `C/C=C/CNC(=N)NCCCCCCCCN1CCCc2cccc(c2)COc2ccccc2CNC(=N)NC1=O` [Example 23, 1-[(2E)-but-2-en-1-yl]-3-(8-{12-imino-14-oxo-3-oxa-11,13,15-triazatricyclo[17.3.1.0^4,9]tricosa-1(23),4(9),5,7,19,21-hexaen-15-yl}octyl)guanidine] has an MIC90 (C. tropicalis) of 256 µg/mL (≈ 456 µM), an MIC90 (C. parapsilosis) of 256 µg/mL (≈ 456 µM) and an MIC90 (C. krusei) of 256 µg/mL (≈ 456 µM). The MIC90 (C. glabrata) was 128 µg/mL (≈ 228 µM), the MIC90 (C. albicans) was 256 µg/mL (≈ 456 µM) and the MIC90 (C. kefyr) was 256 µg/mL (≈ 456 µM). It also gave an MIC90 (C. guilliermondii) of 256 µg/mL (≈ 456 µM).
With `C=C(C)CNC(=N)NCCCCCCN1CCCCCCCCNC(=N)NC1=O` [Compound 37, 1-[6-(4-imino-2-oxo-1,3,5-triazacyclotridec-1-yl)hexyl]-3-(2-methylprop-2-enyl)guanidine] the IC50 [1, 4] was 276 µM, the Ki [1, 4] was 81.4 µM and the IC50 [1, 5] was 108 µM. It also gave a Ki [1, 5] of 34.8 µM.
For `C/C=C/CNC(=N)NCCCCCCCCN1CCCCCCOc2ccccc2CNC(=N)NC1=O` [Example 18, 1-[(E)-but-2-enyl]-3-[8-(4-imino-6-oxo-14-oxa-3,5,7-triazabicyclo[13.4.0]nonadeca-1(15), 16,18-trien-7-yl)octyl]guanidine], the MIC90 (C. tropicalis) was 1 µg/mL (≈ 1.95 µM), the MIC90 (C. parapsilosis) was 2 µg/mL (≈ 3.89 µM) and the MIC90 (C. krusei) was 4 µg/mL (≈ 7.79 µM). The MIC ([2]; strain DSY530, ↑CDR1) was 32 µg/mL (≈ 62.3 µM), the MIC ([2]; strain DSY754, ↑CDR1) was 32 µg/mL (≈ 62.3 µM) and the MIC ([2]; strain DSY756, ↑CDR1-CDR2-SNQ2) was 64 µg/mL (≈ 125 µM). The MIC ([2]; strain DSY2254, ↑CDR1-CDR2) was 64 µg/mL (≈ 125 µM), the MIC ([2]; strain DSY2271, ↑CDR2) was 32 µg/mL (≈ 62.3 µM) and the MIC90 (C. glabrata) was 16 µg/mL (≈ 31.1 µM). The MIC90 (C. albicans) was 4 µg/mL (≈ 7.79 µM), the MIC [3, 6] was 8 µg/mL (≈ 15.6 µM) and the MIC [3, 7] was 8 µg/mL (≈ 15.6 µM). The MIC [3, 8] was 16 µg/mL (≈ 31.1 µM), the MIC [3, 9] was 16 µg/mL (≈ 31.1 µM) and the MIC ([3]; strain DSY296, ERG11 Mutation) was 16 µg/mL (≈ 31.1 µM). The MIC ([3]; strain DSY348, ERG11 Mutation) was 8 µg/mL (≈ 15.6 µM), the MIC ([3]; strain DSY732, ↑CDR1-CDR2) was 16 µg/mL (≈ 31.1 µM) and the MIC ([3]; strain DSY735, ↑CDR1-CDR2) was 16 µg/mL (≈ 31.1 µM). For the same molecule, the MIC ([3]; strain DSY750, ↑MDR1) was 16 µg/mL (≈ 31.1 µM), the MIC [3, 10] was 16 µg/mL (≈ 31.1 µM) and the MIC ([3]; strain DSY775, ERG11 Mutation) was 16 µg/mL (≈ 31.1 µM). The MIC ([3]; strain DSY2323, ↑CDR2-MDR1) was 16 µg/mL (≈ 31.1 µM), the MIC90 (C. kefyr) was 2 µg/mL (≈ 3.89 µM) and the MIC90 (C. guilliermondii) was 2 µg/mL (≈ 3.89 µM).
Work on `C/C=C/CNC(=N)NCCCCCCCCN1CCCCCCOc2ccccc2C(c2cn(-c3ccccc3)nn2)NC(=N)NC1=O` (stereo not shown) [Example 21] yielded an MIC90 (C. tropicalis) of 64 µg/mL (≈ 97.4 µM), an MIC90 (C. parapsilosis) of 32 µg/mL (≈ 48.7 µM) and an MIC90 (C. krusei) of 128 µg/mL (≈ 195 µM). For the same molecule, the MIC90 (C. glabrata) was 64 µg/mL (≈ 97.4 µM), the MIC90 (C. albicans) was 32 µg/mL (≈ 48.7 µM) and the MIC90 (C. kefyr) was 64 µg/mL (≈ 97.4 µM). The MIC90 (C. guilliermondii) was 32 µg/mL (≈ 48.7 µM).
`C/C=C/CNC(=N)NCCCCCCN1CCCCCCCCNC(=N)NC1=O` [Compound 36, 1-[(E)-but-2-enyl]-3-[6-(4-imino-2-oxo-1,3,5-triazacyclotridec-1-yl)hexyl]guanidine] gave an IC50 [1, 5] of 111 µM and a Ki [1, 5] of 35.8 µM.

From US10071975B2, “Macrocyclic amidinourea derivatives, methods of preparation and uses thereof as chitinase inhibitors” (CYGNET BIOSCIENCES B.V., priority 2013, dated 2018)
